According to patent publication US20190270733A1, “Quinoline and Isoquinoline Based HDAC Inhibitors and Methods of Use Thereof” (Reaction Biology Corp., priority 2018, published 2019):
pIC50: −log10 of the molar value.

Tests used:
Human HDAC1 = target: T1, Human HDAC1 (Homo sapiens, UniProt Q13547); test: Biochemical HDAC assay, HDAC1; details: incubation time 120 min
T1 construct: full-length with a C-terminal His-tag and a C-terminal FLAG-tag; His-tag (C); FLAG-tag (C); made in house
Protocol: Human HDAC1 (GenBank Accession No. NM_004964), full-length with a C-terminal His-tag and a C-terminal FLAG-tag, MW=56 kDa, was expressed in a baculovirus expression system.
(§1) • I. Compound handling: Testing compounds were dissolved in 100% DMSO to a specific concentration. The serial dilution was conducted by epMotion 5070 in DMSO. • II. HDAC reaction buffer: 50 mM Tris-HCl, pH8.0, 137 mM NaCl, 2.7 mM KCl, and 1 mM MgCl2, Added fresh: 1 mg/ml BSA, 1% DMSO. • III. Substrate: Fluorogenic HDAC General Substrate for HDAC1, 2, 3, 6, 10, 11 ans Sirt1, 2 and 3: Arg-His-Lys-Lys(Ac); HDAC8 only substrate: Arg-His-Lys(Ac)-Lys(Ac); Class2A Substrate (HDAC4, 5, 7 and 9): Acetyl-Lys(trifluoroacetyl)-AMC; Sirt5 substrate: Ac-Lys(succinyl)-AMC. • IV. General Reaction Procedure: (Standard IC50 determination) • a. Delivered 2× enzyme in wells of reaction plate except No Enzyme (No En) control wells. Add buffer in No En wells. • b. Delivered compounds in 100% DMSO into the enzyme mixture by Acoustic technology (Echo550; nanoliter range). Spin down and pre-incubation. • c. Delivered 2× Substrate Mixture (Fluorogenic HDAC Substrate and co-factor (500 μM of Nicotinamide adenine dinucleotide (NAD^+) in all Sirt assay) in all reaction wells to initiate the reaction. Spin and shake. • d. Incubated for 1-2 hr. at 30° C. with seal. • e. Added Developer with Trichostatin A (or TMP269 or NAD^+) to stop the reaction and to generate fluorescent color. • f. Fluorescence was read (excitatory, 360; emission, 460) using the EnVision Multilabel Plate Reader (Perkin Elmer) • g. Endpoint reading was taken for analysis after the development reaches plateau. • V. Data Analysis: The percentages of enzyme activity (relative to DMSO controls) and IC50 values were calculated using the GraphPad Prism 4 program based on a sigmoidal dose-response equation.
(§2) Compounds with indicated doses was tested in the biochemical assays of HDAC1, HDAC2, HDAC3, HDAC4, HDAC5, HDAC6, HDAC7, HDAC8, HDAC9, HDAC10, or HDAC11 enzyme. The incubation time in HDAC1/2 assays are 120 min, and that for other HDACs are 10 min. The curve fit and IC50 values were calculated using the GraphPad Prism 4 program based on a sigmoidal dose-response equation.

Recombinant human HDAC6 = target: T2, Recombinant human HDAC6 (Homo sapiens, UniProt Q9UBN7); test: Biochemical HDAC assay, HDAC6; details: incubation time 10 min
T2 construct: full-length, MW=180 kDa; GST tag (N); made in house; host or cells: Sf9 insect cells (baculovirus)
T2 sequence (Q9UBN7 1-1215): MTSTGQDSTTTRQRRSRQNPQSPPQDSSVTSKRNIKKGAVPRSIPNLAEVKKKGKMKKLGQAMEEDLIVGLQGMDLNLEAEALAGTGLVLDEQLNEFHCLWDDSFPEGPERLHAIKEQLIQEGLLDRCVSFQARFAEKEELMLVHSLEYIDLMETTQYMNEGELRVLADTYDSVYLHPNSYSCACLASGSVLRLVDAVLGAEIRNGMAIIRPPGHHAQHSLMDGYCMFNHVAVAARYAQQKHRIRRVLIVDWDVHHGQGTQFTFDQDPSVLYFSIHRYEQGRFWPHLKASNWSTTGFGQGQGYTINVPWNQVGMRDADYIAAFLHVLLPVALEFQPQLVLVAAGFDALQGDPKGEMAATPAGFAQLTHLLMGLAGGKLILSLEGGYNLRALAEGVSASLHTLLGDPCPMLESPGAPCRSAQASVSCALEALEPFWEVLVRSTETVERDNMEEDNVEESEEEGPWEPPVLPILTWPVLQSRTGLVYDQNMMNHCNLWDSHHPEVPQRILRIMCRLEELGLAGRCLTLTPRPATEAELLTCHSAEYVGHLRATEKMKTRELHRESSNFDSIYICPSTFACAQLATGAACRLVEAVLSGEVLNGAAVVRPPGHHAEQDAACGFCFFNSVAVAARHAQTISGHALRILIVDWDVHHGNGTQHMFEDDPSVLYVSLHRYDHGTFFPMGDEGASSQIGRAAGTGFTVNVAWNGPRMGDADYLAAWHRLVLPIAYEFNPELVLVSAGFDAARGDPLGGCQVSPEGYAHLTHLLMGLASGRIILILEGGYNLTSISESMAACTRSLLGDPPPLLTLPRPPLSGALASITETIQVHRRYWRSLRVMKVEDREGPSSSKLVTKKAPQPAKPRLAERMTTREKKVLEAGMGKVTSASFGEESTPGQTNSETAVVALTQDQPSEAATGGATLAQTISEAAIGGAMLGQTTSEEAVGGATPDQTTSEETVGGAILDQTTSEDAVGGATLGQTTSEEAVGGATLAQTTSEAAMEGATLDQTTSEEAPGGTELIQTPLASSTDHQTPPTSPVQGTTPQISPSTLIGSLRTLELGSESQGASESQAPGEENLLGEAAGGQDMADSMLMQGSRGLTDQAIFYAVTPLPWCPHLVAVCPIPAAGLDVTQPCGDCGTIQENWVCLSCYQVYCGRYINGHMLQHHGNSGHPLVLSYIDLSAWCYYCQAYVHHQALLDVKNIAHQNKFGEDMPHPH
Protocol: Recombinant human HDAC6 (GenBank Accession No. BC069243), full-length, MW=180 kDa, was expressed by baculovirus in Sf9 insect cells using an N-terminal GST tag.
as §1, §2

T1 sequence (Q13547 whole entry): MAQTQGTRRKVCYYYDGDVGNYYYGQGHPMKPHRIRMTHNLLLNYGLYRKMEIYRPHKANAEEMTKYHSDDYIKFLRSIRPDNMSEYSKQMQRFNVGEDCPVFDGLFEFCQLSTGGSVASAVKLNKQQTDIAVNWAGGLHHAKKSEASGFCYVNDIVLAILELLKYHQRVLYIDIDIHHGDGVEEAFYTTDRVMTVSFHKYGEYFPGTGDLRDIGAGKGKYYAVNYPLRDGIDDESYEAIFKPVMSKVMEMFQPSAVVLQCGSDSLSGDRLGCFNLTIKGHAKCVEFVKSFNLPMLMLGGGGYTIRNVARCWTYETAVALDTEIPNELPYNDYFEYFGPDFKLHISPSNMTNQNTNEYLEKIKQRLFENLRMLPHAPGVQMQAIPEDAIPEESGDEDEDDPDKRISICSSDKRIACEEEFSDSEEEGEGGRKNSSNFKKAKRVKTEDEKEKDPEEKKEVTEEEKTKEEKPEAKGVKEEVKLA

With `Nc1ccc(-c2cccs2)cc1NC(=O)c1ccc2c(c1)CCC(=O)N2` [Example 5, N-(2-amino-5-(thiophen-2-yl)phenyl)-2-oxo-1,2,3,4-tetrahydroquinoline-6-carboxamide] the pIC50 (Human HDAC1) was 8.60 and the pIC50 (Recombinant human HDAC6) was under 5.00.
